# Several values for one entry are separate records, joined by “and”; a condition that tells them apart may be missing. Equal values may be shown once. Read-outs that look alike come from different tables or passages of the source.
# What was measured:
# [1] = tested on: PC3 cells; assay: SRB cell viability assay, docetaxel-sensitive PC3 cells; assay type: cell-based; conditions: Homo sapiens, PC-3; read-out: IC50 of drug when cells treated with drug only
# Method: (§1) The chemotherapeutic drugs that were tested for chemosensitization in combination with LTG-E were docetaxel, daunorubicin, Herceptin®, and lapatinib. […] Table 17 also contains the serially-diluted concentrations of drugs that each cell line was tested against.
# [2] = tested on: DU145 cells; assay: SRB cell viability assay, docetaxel-sensitive DU145 cells; assay type: cell-based; conditions: Homo sapiens; for viability at 1 pM: docetaxel 0.001 nM 72 h; for viability at 0.000333 µM: docetaxel 0.333 nM 72 h; for viability at 0.001 µM: docetaxel 1 nM 72 h; for viability at 0.00333 µM: docetaxel 3.33 nM 72 h; for viability at 0.01 µM: docetaxel 10 nM 72 h; for viability at 0.0333 µM: docetaxel 33.3 nM 72 h; for viability at 0.1 µM: docetaxel 100 nM 72 h; for IC50: DU-145
# Method: as §1
# Using the methods described in Example 2, the chemosensitizing effect of LGT-E pretreatment on docetaxel-treated DU145 cells was studied. […] Table 20 reports control data obtained from DU145 cells that were not pre-treated with LGT-E. FIG. 7 summarizes the data of Tables 19 and 20 in a graphical format.
# [3] = tested on: SkBr3 cells; assay: SRB cell viability assay, lapatinib-sensitive SkBr3 cells; assay type: cell-based, human; conditions: for mean A at 565 nm: no chemosensitizing pre-treatment, background = 0.047
# Method: Cell culture of the above cell lines was performed as described in Example 2, except that 5,000, rather than 3,000 cells were plated per well for the K562, K562/Dox, BT474, SkBr3 lines.
# Table 17 also contains the serially-diluted concentrations of drugs that each cell line was tested against.
# (§2) FIG. 13 summarizes the data of Tables 32-33 in a graphical format.
# [4] = tested on: SkBr3-TxR cells; assay: SRB cell viability assay, lapatinib-resistant SkBr3-TxR cells; assay type: cell-based, human; conditions: for viability at 0.001 µM / viability at 0.02 µM / viability at 0.067 µM / viability at 0.2 µM / viability at 0.67 µM / viability at 2 µM / viability at 6.7 µM / viability at 20 µM / IC50: Homo sapiens; for viability at 0.067 µM: Lapatinib 0.067 μM
# From the text: as §2
# FIG. 14 summarizes the data of Tables 34 and 35 in a graphical format.
# [5] = DU-145, read-out: % viable, DU145, LGT-E 50 μg/ml pre-treatment
# [6] = DU-145, read-out: % viable, DU145, no LGT-E pre-treatment
# [7] = read-out: IC50 of drug when cells pre-treated with Chemosensitizing Agent before drug treatment
# [8] = read-out: IC50 of drug when cells treated with drug only
structure (smiles),measurement,setting,value
"CC(=O)O[C@@]12CO[C@@H]1C[C@H](O)[C@@]1(C)C(=O)[C@H](O)C3=C(C)[C@@H](OC(=O)[C@H](O)[C@@H](NC(=O)OC(C)(C)C)c4ccccc4)C[C@@](O)([C@@H](OC(=O)c4ccccc4)[C@H]21)C3(C)C [Docetaxel, docetaxel]",IC50,[1],1.8 nM and 0.00145 µg/mL
same,viability at 1 pM,[2]; [5],100%
same,viability at 0.000333 µM,[2]; [5],100%
same,viability at 0.001 µM,[2]; [5],97.4%
same,viability at 0.00333 µM,[2]; [5],54%
same,viability at 0.01 µM,[2]; [5],23.9%
same,viability at 0.0333 µM,[2]; [5],9.6%
same,viability at 0.1 µM,[2]; [5],9.3%
same,viability at 1 pM,[2]; [6],100%
same,viability at 0.0001 µM,"[2]; DU-145, read-out: % viable, DU145, no LGT-E pre-treatment, docetaxel 0.1 nM 72 h",100%
same,viability at 0.000333 µM,[2]; [6],101%
same,viability at 0.001 µM,[2]; [6],100%
same,viability at 0.00333 µM,[2]; [6],86.9%
same,viability at 0.01 µM,[2]; [6],44.4%
same,viability at 0.0333 µM,[2]; [6],24.1%
same,viability at 0.1 µM,[2]; [6],21.8%
same,IC50,[2]; [7],3.39 nM and 0.00274 µg/mL
same,IC50,[2]; [8],6.65 nM and 0.00537 µg/mL
CS(=O)(=O)CCNCc1ccc(-c2ccc3ncnc(Nc4ccc(OCc5cccc(F)c5)c(Cl)c4)c3c2)o1 [lapatinib],IC50,"[3]; Homo sapiens, SK-BR-3, read-out: IC50 of drug when cells treated with drug only",241 nM and 0.14 µg/mL
same,mean A at 565 nm,[3]; Lapatinib 0.001 μM,2.203
same,mean A at 565 nm,[3]; Lapatinib 0.067 μM,1.707
same,mean A at 565 nm,[3]; Lapatinib 0.2 μM,1.314
same,mean A at 565 nm,[3]; Lapatinib 0.67 μM,0.708
same,mean A at 565 nm,[3]; Lapatinib 2 μM,0.347
same,mean A at 565 nm,[3]; Lapatinib 6.7 μM,0.211
same,mean A at 565 nm,[3]; Lapatinib 20 μM,0.221
same,viability at 0.001 µM,"[4]; Lapatinib 0.001 μM, 72 h, no LGT-E pre-treatment (control to Table 34)",100%
same,viability at 0.001 µM,"[4]; Lapatinib 0.001 μM, 72 h, pre-treated with […] LGT-E",100%
same,viability at 0.001 µM,"[4]; Lapatinib 0.001 μM, no chemosensitizing pre-treatment (Table 33)",100%
same,viability at 0.02 µM,"[4]; Lapatinib 0.02 μM, 72 h, no LGT-E pre-treatment (control to Table 34)",99.2%
same,viability at 0.02 µM,"[4]; Lapatinib 0.02 μM, 72 h, pre-treated with […] LGT-E",97.2%
same,viability at 0.02 µM,"[4]; Lapatinib 0.02 μM, no chemosensitizing pre-treatment (Table 33)",103%
same,viability at 0.067 µM,"[4]; 72 h, no LGT-E pre-treatment (control to Table 34)",96.2%
same,viability at 0.067 µM,"[4]; 72 h, pre-treated with […] LGT-E",92.6%
same,viability at 0.067 µM,[4]; no chemosensitizing pre-treatment (Table 33),102%
same,viability at 0.2 µM,"[4]; Lapatinib 0.2 μM, 72 h, no LGT-E pre-treatment (control to Table 34)",93.1%
same,viability at 0.2 µM,"[4]; Lapatinib 0.2 μM, 72 h, pre-treated with […] LGT-E",90.3%
same,viability at 0.2 µM,"[4]; Lapatinib 0.2 μM, no chemosensitizing pre-treatment (Table 33)",97.2%
same,viability at 0.67 µM,"[4]; Lapatinib 0.67 μM, 72 h, no LGT-E pre-treatment (control to Table 34)",88.8%
same,viability at 0.67 µM,"[4]; Lapatinib 0.67 μM, 72 h, pre-treated with […] LGT-E",75.9%
same,viability at 0.67 µM,"[4]; Lapatinib 0.67 μM, no chemosensitizing pre-treatment (Table 33)",91.8%
same,viability at 2 µM,"[4]; Lapatinib 2 μM, 72 h, no LGT-E pre-treatment (control to Table 34)",70.4%
same,viability at 2 µM,"[4]; Lapatinib 2 μM, 72 h, pre-treated with […] LGT-E",60.9%
same,viability at 2 µM,"[4]; Lapatinib 2 μM, no chemosensitizing pre-treatment (Table 33)",77.2%
same,viability at 6.7 µM,"[4]; Lapatinib 6.7 μM, 72 h, no LGT-E pre-treatment (control to Table 34)",47.7%
same,viability at 6.7 µM,"[4]; Lapatinib 6.7 μM, 72 h, pre-treated with […] LGT-E",34.9%
same,viability at 6.7 µM,"[4]; Lapatinib 6.7 μM, no chemosensitizing pre-treatment (Table 33)",46.4%
same,viability at 20 µM,"[4]; Lapatinib 20 μM, 72 h, no LGT-E pre-treatment (control to Table 34)",25.4%
same,viability at 20 µM,"[4]; Lapatinib 20 μM, 72 h, pre-treated with […] LGT-E",18.3%
same,viability at 20 µM,"[4]; Lapatinib 20 μM, no chemosensitizing pre-treatment (Table 33)",26.4%
same,IC50,[4]; [7],3.92 µM and 2.28 µg/mL
same,IC50,[4]; [8],6.2 µM and 3.6 µg/mL
same,mean A at 565 nm,"[4]; Lapatinib 0.001 μM, 72 h, no LGT-E pre-treatment (control to Table 34), background = 0.044",2.294
same,mean A at 565 nm,"[4]; Lapatinib 0.001 μM, no chemosensitizing pre-treatment (Table 33), background = 0.047",2.298
same,mean A at 565 nm,"[4]; Lapatinib 0.02 μM, 72 h, no LGT-E pre-treatment (control to Table 34), background = 0.044",2.276
same,mean A at 565 nm,"[4]; Lapatinib 0.02 μM, 72 h, pre-treated with […] LGT-E, background = 0.044",2.151
same,mean A at 565 nm,"[4]; Lapatinib 0.02 μM, no chemosensitizing pre-treatment (Table 33), background = 0.047",2.357
same,mean A at 565 nm,"[4]; Lapatinib 0.2 μM, 72 h, pre-treated with […] LGT-E, background = 0.044",1.999
same,mean A at 565 nm,"[4]; Lapatinib 0.2 μM, no chemosensitizing pre-treatment (Table 33), background = 0.047",2.234
same,mean A at 565 nm,"[4]; Lapatinib 0.67 μM, 72 h, no LGT-E pre-treatment (control to Table 34), background = 0.044",2.038
same,mean A at 565 nm,"[4]; Lapatinib 2 μM, 72 h, no LGT-E pre-treatment (control to Table 34), background = 0.044",1.614
same,mean A at 565 nm,"[4]; Lapatinib 2 μM, 72 h, pre-treated with […] LGT-E, background = 0.044",1.348
same,mean A at 565 nm,"[4]; Lapatinib 2 μM, no chemosensitizing pre-treatment (Table 33), background = 0.047",1.775
same,mean A at 565 nm,"[4]; Lapatinib 6.7 μM, 72 h, no LGT-E pre-treatment (control to Table 34), background = 0.044",1.095
same,mean A at 565 nm,"[4]; Lapatinib 6.7 μM, 72 h, pre-treated with […] LGT-E, background = 0.044",0.772
same,mean A at 565 nm,"[4]; Lapatinib 6.7 μM, no chemosensitizing pre-treatment (Table 33), background = 0.047",1.066
same,mean A at 565 nm,"[4]; Lapatinib 20 μM, 72 h, no LGT-E pre-treatment (control to Table 34), background = 0.044",0.584
same,mean A at 565 nm,"[4]; Lapatinib 20 μM, 72 h, pre-treated with […] LGT-E, background = 0.044",0.406
same,mean A at 565 nm,"[4]; Lapatinib 20 μM, no chemosensitizing pre-treatment (Table 33), background = 0.047",0.607
